Experimental data as given in patent US20150045410A1, “METHOD OF REGULATING CFTR EXPRESSION AND PROCESSING” (University of Iowa Research Foundation, priority 2012, published 2015).

System: SIN3A
Experiment: SIN3A mRNA (RT-qPCR) and protein (immunoblot) in primary human airway epithelia
Assay type: cell-based
Conditions: polarized primary human airway epithelia; mRNA 24 hrs, protein 72 hrs post-transfection
Procedure: Airway epithelia from human trachea and primary bronchus removed from organs donated for research were cultured at the air-liquid interface (ALI) (Karp, P. H. et al. An in vitro model of differentiated human airway epithelia. Methods for establishing primary cultures. Methods Mol. Biol. 188, 115-137 (2002)). These studies were approved by the Institutional Review Board of the University of Iowa. Briefly, airway epithelial cells were dissociated from native tissue by pronase enzyme digestion. Permeable membrane inserts (0.6 cm^2 Millipore-PCF, 0.33 cm^2 Costar-Polyester) pre-coated with human placental collagen (IV, Sigma) were seeded with freshly dissociated epithelia. […]
First-strand cDNA was synthesized using SuperScript® II (Invitrogen), and oligo-dT and random-hexamer primers. […] To quantitate miRNAs, TaqMan® microRNA Assays (Applied Biosystems) were obtained for miR-138, RNU48 (control) and 8 other miRNAs (negative control, miRs-21, -24, -26a, -200c, -146a, -146b, -27a*, -134). […] All experiments were performed in quadruplicate. mRNA and miRNA quantification in cell lines represents 8 independent transfections in 4 separate experiments. mRNA quantification in human primary airway epithelial cultures represent 8 independent transfections in 8 non-CF donors and 4 CF donors. […]

Question: How did the “SIN3A mRNA and protein levels” value turn out when “miR-138 mimic: synthetic modified RNA duplex, sense SEQ ID NO: 4, antisense SEQ ID NO: 5, showing miR-138-like activity” was run?
Answer: The value was “reduced”.
